Ki data for 23 compounds are collected here from patent publication US10988459B2 (priority 2015, dated 2021).

Structures are written as SMILES.

Chain of human RIP1 kinase domain (2-375) (Q13546 2-375): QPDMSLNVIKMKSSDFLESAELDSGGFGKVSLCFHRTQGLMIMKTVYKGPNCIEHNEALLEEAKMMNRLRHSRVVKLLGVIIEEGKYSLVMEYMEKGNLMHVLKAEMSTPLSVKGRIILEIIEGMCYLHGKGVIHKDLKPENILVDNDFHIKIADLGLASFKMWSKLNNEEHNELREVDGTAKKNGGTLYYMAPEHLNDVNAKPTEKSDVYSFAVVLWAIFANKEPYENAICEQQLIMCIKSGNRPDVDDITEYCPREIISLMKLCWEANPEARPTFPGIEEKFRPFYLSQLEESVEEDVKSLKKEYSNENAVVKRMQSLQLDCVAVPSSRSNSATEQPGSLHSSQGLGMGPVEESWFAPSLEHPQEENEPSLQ

The test has as its target human RIP1 kinase domain (2-375) (Homo sapiens (Human), UniProt Q13546). The experiment in a line: biochemical. Format: biochemical. The note with it: tight-binding apparent inhibition constant; human RIP1 kinase domain (2-375) 50 nM, 50 uM ATP, 2 hours; read-out: Ki. How it is done: Example 794: RIP1 Kinase Inhibition Assays (Biochemical Assay)
The compounds of the present invention were tested for their capacity to inhibit RIP1K activity as described below.
The ability of the receptor interacting protein kinase (RIPK1) to catalyze the hydrolysis of adenosine-5′-triphosphate (ATP) is monitored using the Transcreener ADP (adenosine-5′-diphosphate) assay (BellBrook Labs). Purified human RIP1 kinase domain (2-375) (50 nM) derived from a baculovirus-infected insect cell expression system is incubated with test compounds for 2 hours in 50 mM Hepes buffer (pH 7.5) containing 30 mM MgCl2, 1 mM dithiothreitol, 50 uM ATP, 0.002% Brij-35, and 0.5% dimethyl sulfoxide (DMSO). […] The tracer bound to the antibody is displaced by the ADP generated during the RIP1K reaction, which causes a decrease in fluorescence polarization that is measured by laser excitation at 633 nm with a FP microplate reader M1000. Fractional activity was plotted against test article concentration. Using Genedata Screener software (Genedata; Basel, Switzerland), the data were fit to the tight-binding apparent inhibition constant (Ki^app) Morrison equation [Williams, J. W. and Morrison, J. F. (1979) The kinetics of reversible tight-binding inhibition. Methods Enzymol 63: 437-67]. The following equation was used to calculate fractional activity and Ki^app:
[formula] where [E]T and [I]T are the total concentrations of active enzyme and test article, respectively.
“Method” in the first column of each table refers to the synthetic method(s) used to prepare each compound as shown in the Examples above. In certain examples, chiral column retention times (min) are provided for certain stereoisomers.
`CCC[C@H]1CCCc2nc(C(=O)N[C@H]3COc4ccccc4N(C)C3=O)nn21` (racemic) [Example 415, (S)—N—((S)-5-methyl-4-oxo-2,3,4,5-tetrahydrobenzo[b][1,4]oxazepin-3-yl)-5-propyl-5,6,7,8-tetrahydro-[1,2,4]triazolo[1,5-a]pyridine-2-carboxamide]: the Ki is 12.6 nM. As to `CCC[C@@H]1CCCc2nc(C(=O)N[C@H]3COc4ccccc4N(C)C3=O)nn21` (racemic) [Example 416, (R)—N—((S)-5-methyl-4-oxo-2,3,4,5-tetrahydrobenzo[b][1,4]oxazepin-3-yl)-5-propyl-5,6,7,8-tetrahydro-[1,2,4]triazolo[1,5-a]pyridine-2-carboxamide], the Ki amounted to 4.63 nM. As for `CN1C(=O)[C@@H](NC(=O)c2nc3n(n2)[C@H](C(F)(F)F)CCC3)COc2ccccc21` (racemic) [Example 426, (S)—N—((S)-5-methyl-4-oxo-2,3,4,5-tetrahydrobenzo[b][1,4]oxazepin-3-yl)-5-(trifluoromethyl)-5,6,7,8-tetrahydro-[1,2,4]triazolo[1,5-a]pyridine-2-carboxamide], the Ki was determined as 13.7 nM. The value for `Cc1ncc2n1CCC(NC(=O)c1ncn(Cc3ccccc3)n1)C(=O)N2C` (racemic) [Example 557, 1-benzyl-N-(1,7-dimethyl-2-oxo-4,5-dihydro-3H-imidazo[1,5-a][1,3]diazepin-3-yl)-1,2,4-triazole-3-carboxamide] was 130 nM; that for `Cc1cc2n(n1)CC[C@H](NC(=O)c1nc3n(n1)CC[C@H]3c1ccccc1)C(=O)N2C` (racemic) [Example 575, (7S)-7-phenyl-N-[(6S)-2,4-dimethyl-5-oxo-7,8-dihydro-6H-pyrazolo[1,5-a][1,3]diazepin-6-yl]-6,7-dihydro-5H-pyrrolo[1,2-b][1,2,4]triazole-2-carboxamide] was 28 nM.

For the compound `CN1C(=O)[C@@H](NC(=O)c2ncn(Cc3ncccc3Cl)n2)CCn2nccc21` (racemic) [Example 656, 1-[(3-chloro-2-pyridyl)methyl]-N-[rac-(6S)-4-methyl-5-oxo-7,8-dihydro-6H-pyrazolo[1,5-a][1,3]diazepin-6-yl]-1,2,4-triazole-3-carboxamide], the Ki came out at 61 nM.

Take `C[C@@H](c1ccc(F)cc1)n1cnc(C(=O)N[C@H]2CCn3nc(C4CC4)cc3N(C)C2=O)n1` (racemic) [Example 670, N-[rac-(6S)-2-cyclopropyl-4-methyl-5-oxo-7,8-dihydro-6H-pyrazolo[1,5-a][1,3]diazepin-6-yl]-1-[rac-(1S)-1-(4-fluorophenyl)ethyl]-1,2,4-triazole-3-carboxamide]: the Ki stood at 26.6 nM. Turning to `CN1C(=O)[C@@H](NC(=O)c2nnc(Cc3ccccc3)[nH]2)CCn2nc([C@H]3CC3(F)F)cc21` (racemic) [Example 672, 5-benzyl-N-[rac-(6S)-4-methyl-5-oxo-2-[rac-(1R)-2,2-difluorocyclopropyl]-7,8-dihydro-6H-pyrazolo[1,5-a] [1,3]diazepin-6-yl]-4H-1,2,4-triazole-3-carboxamide], the Ki was 56 nM. With `CN1C(=O)[C@H](NC(=O)c2nnc(Cc3ccccc3)[nH]2)CCn2nc([C@H]3CC3(F)F)cc21` (racemic) [Example 673, 5-benzyl-N-[rac-(6R)-4-methyl-5-oxo-2-[rac-(1R)-2,2-difluorocyclopropyl]-7,8-dihydro-6H-pyrazolo[1,5-a] [1,3]diazepin-6-yl]-4H-1,2,4-triazole-3-carboxamide], the Ki was determined as 41.2 nM. Regarding `CN1C(=O)[C@H](NC(=O)c2ncn(Cc3ccccc3)n2)CCn2nc([C@H]3CC3(F)F)cc21` (racemic) [Example 674, 1-benzyl-N-[rac-(6R)-4-methyl-5-oxo-2-[rac-(1R)-2,2-difluorocyclopropyl]-7,8-dihydro-6H-pyrazolo[1,5-a] [1,3]diazepin-6-yl]-1,2,4-triazole-3-carboxamide], the Ki came to 3980 nM. `C[C@H](c1ccc(F)cc1)n1cnc(C(=O)N[C@H]2CCn3nc(C4CC4)cc3N(C)C2=O)n1` (racemic) [Example 676, N-[rac-(6S)-2-cyclopropyl-4-methyl-5-oxo-7,8-dihydro-6H-pyrazolo[1,5-a][1,3]diazepin-6-yl]-1-[rac-(1R)-1-(4-fluorophenypethyl]-1,2,4-triazole-3-carboxamide]: the Ki was 3100 nM. In the case of `CN1C(=O)[C@@H](NC(=O)c2ncn(Cc3ccc(Cl)cc3)n2)CCn2nc(C3CC3)cc21` (racemic) [Example 677, 1-[(4-chlorophenyl)methyl]-N-[rac-(6S)-2-cyclopropyl-4-methyl-5-oxo-7,8-dihydro-6H-pyrazolo[1,5-a][1,3]diazepin-6-yl]-1,2,4-triazole-3-carboxamide], the Ki worked out at 7.58 nM. The value for `CCC[C@@]1(C)OCc2cnc(C(=O)N[C@H]3COc4ccccc4N(C)C3=O)nc21` (racemic) [Example 684, rac-(7R)-7-methyl-7-propyl-N-[rao-(3S)-5-methyl-4-oxo-2,3-dihydro-1,5-benzoxazepin-3-yl]-5H-furo[3,4-d]pyrimidine-2-carboxamide] was 163 nM; that for `CC[C@]1(C)OCc2cnc(C(=O)N[C@H]3COc4ccccc4N(C)C3=O)nc21` (racemic) [Example 685, rac-(7S)-7-ethyl-7-methyl-N-[rac-(3S)-5-methyl-4-oxo-2,3-dihydro-1,5-benzoxazepin-3-yl]-5H-furo[3,4-d] pyrimidine-2-carboxamide] was 21.4 nM.

For the compound `Cc1cc2n(n1)CC[C@H](NC(=O)c1ncc3c(n1)[C@@](C)(CC(F)(F)F)OC3)C(=O)N2C` (racemic) [Example 686, rac-(7R)-7-methyl-N-[rac-(6S)-2,4-dimethyl-5-oxo-7,8-dihydro-6H-pyrazolo[1,5-a][1,3]diazepin-6-yl]-7-(2,2,2-trifluoroethyl)-5H-furo[3,4-d]pyrimidine-2-carboxamide], the Ki is 1100 nM. Take `CC[C@@]1(C)OCc2cnc(C(=O)N[C@H]3CCn4nc(C)cc4N(C)C3=O)nc21` (racemic) [Example 687, rac-(7R)-7-ethyl-7-methyl-N-[rac-(6S)-2,4-dimethyl-5-oxo-7,8-dihydro-6H-pyrazolo[1,5-a][1,3]diazepin-6-yl]-5H-furo[3,4-d]pyrimidine-2-carboxamide]: the Ki came to 251 nM.

Regarding `CN1C(=O)[C@@H](NC(=O)c2ncc3c(n2)[C@](C)(CC(F)(F)F)OC3)COc2ccccc21` (racemic) [Example 688, rac-(7S)-7-methyl-N-[rac-(3 S)-5-methyl-4-oxo-2,3-dihydro-1,5-benzoxazepin-3-yl]-7-(2,2,2-trifluoroethyl)-5H-furo[3,4-d]pyrimidine-2-carboxamide], the Ki is 43.7 nM.

Regarding `Cc1cc2n(n1)CC[C@H](NC(=O)c1ncc3c(n1)[C@](C)(CC(F)(F)F)OC3)C(=O)N2C` (racemic) [Example 689, rac-(75)-7-methyl-N-[rac-(6S)-2,4-dimethyl-5-oxo-7,8-dihydro-6H-pyrazolo[1,5-a][1,3diazepin-6-yl]-7-(2,2,2-trifluoroethyl)-5H-furo[3,4-d]pyrimidine-2-carboxamide], the Ki stood at 176 nM. As to `CC[C@]1(C)OCc2cnc(C(=O)N[C@H]3CCn4nc(C)cc4N(C)C3=O)nc21` (racemic) [Example 690, rac-(7S)-7-ethyl-7-methyl-N-[rac-(6S)-2,4-dimethyl-5-oxo-7,8-dihydro-6H-pyrazolo [1,5-a][1,3]diapepin-6-yl]-5H-furo[3,4-d]pyrimidine-2-carboxamide], the Ki was 1180 nM. Consider `CN1C(=O)[C@@H](NC(=O)c2ncc3c(n2)[C@@](C)(CC(F)(F)F)OC3)COc2ccccc21` (racemic) [Example 691, rac-(7R)-7-methyl-N-[rac-(3S)-5-methyl-4-oxo-2,3-dihydro-1,5-benzoxazepin-3-yl]-7-(2,2,2-trifluoroethyl)-5H-furo[3,4-d]pyrimidine-2-carboxamide], for which the Ki is 22.8 nM. Consider `CN1C(=O)[C@@H](NC(=O)c2ncc3c(n2)[C@@]2(CCCOC2)OC3)COc2ccccc21` (racemic) [Example 692, rac-(7R)-N-[rac-(3S)-5-methyl-4-oxo-2,3-dihydro-1,5-benzoxazepin-3-yl]spiro[5H-furo[3,4-d]pyrimidine-7,3′-tetrahydropyran]-2-carboxamide], for which the Ki worked out at 113 nM.

On to `Cc1cn2c(n1)N(C)C(=O)[C@H](NC(=O)c1ncn(Cc3ccccc3)n1)CC2` (racemic) [Example 693, 1-benzyl-N-[rac-(7R)-2,9-dimethyl-8-oxo-6,7-dihydro-5H-imidazo[1,2-a][1,3]diazepin-7-yl]-1,2,4-triazole-3-carboxamide], for which the Ki is 30.5 nM. Regarding `CN1C(=O)[C@@H](NC(=O)c2ncc3c(n2)[C@]2(CCOC2)OC3)COc2ccccc21` (racemic) [Example 694, rac-(7S)-N-[rac-(3S)-5-methyl-4-oxo-2,3-dihydro-1,5-benzoxazepin-3-yl]spiro[5H-furo[3,4-d]pyrimidine-7,3′-tetrahydrofuran]-2-carboxamide], the Ki was 172 nM.
